Results reported in publication PMC7319089, “Multi-Component Comparative Pharmacokinetics in Rats After Oral Administration of Fructus aurantii Extract, Naringin, Neohesperidin, and Naringin-Neohesperidin” (Frontiers in Pharmacology, 2020).
Read-outs that look alike come from different tables or passages of the source.

Experiments:
[1] = Pharmacokinetics in SD rats after oral administration of FA extract, NA, NHE or NA-NHE (UPLC-MS/MS of plasma, DAS 3.1); type: in vivo, Sprague-Dawley (SD) rats; conditions: for MRT last: read-out: MRT(0-t); for MRT inf: read-out: MRT(0-∞); for Vd/F: read-out: Vz/F; for Cmax: plasma after β-glucuronidase/sulfatase hydrolysis; for AUC(0-t): read-out: AUC(0-t); for Shape of the plasma concentration-time profile: oral administration, naringin and neohesperidin determined as naringenin and hesperetin
Method: The 20 μl of β-glucuronidase and 15 μl of sulfatase were added into 50 μl of plasma sample. After vortexed for 30 s, the mixture was incubated at 37°C for 2 h in a water bath, then placed in ice water for 5 min to terminate the reaction ([Xu et al., 2019]). IS solution (20 µl, 5 μg/ml) and acetonitrile (1.0 ml) were added into the mixture and vortexed for 2 min. […] Rats were randomly divided into the following four groups (6 rats in each group): naringin (NA), neohesperidin (NHE), naringin-neohesperidin (NA-NHE), and FA extract group. The oral administration doses were selected according to the literatures ([Tong et al., 2012]; [Yang et al., 2012]; [Committee of National Pharmacopoeia of RP China, 2015]; [Wang et al., 2018]; [Zhang et al., 2018]; [Chen et al., 2019]), the contents of the five components in FA, and the preliminary experiments. The specific doses were as follows: […] The rats had free access to water during the experiment. The blood samples were then immediately centrifuged at 4,000 rpm for 10 min. The plasma was frozen and stored at −80°C until analysis. The plasma concentration of the studied compounds was determined according to the daily calibration curve.

[2] = Stability of the analytes in rat plasma (QC samples); type: in vitro ADME; conditions: n = 6; for Long-term Stability RE: -20 °C for one month; for Short-term Stability RE: room temperature 24 h; for Free–thaw Stability RE: three cycles -20 °C/room temperature
Method: The QC samples were assayed under several different conditions to evaluate the stability of the compounds in rat plasma. For the short-term stability, fresh plasma samples were kept at room temperature for 24 h before the sample preparation. After keeping the samples at room temperature for 24 h, post-preparation stability was tested. Freeze-thaw cycles (-20 °C/room temperature) stability were […] treated at -20°C for freezing-room temperature melting three times (repeated freezing and thawing three times). In each freeze-thaw cycle, the samples were frozen and stored at -20 °C for 24 h, and subsequently thawed at room. To evaluate the long-term stability of QC plasma samples, following storage at -20 °C for one month. The stability data were acceptable when the bias was within ±15% of the actual value ([Yuan et al., 2017]).

[3] = set-up: method as in Wang et al., 2018; conditions: after orally administering 30 g/kg FA decoction; ref Wang et al., 2018; cited from earlier work
[4] = Sprague-Dawley, rat, plasma, male SD rats, oral FA extract 10.8 g/kg of the original medicinal material, statistical moment parameters, n = 6
[5] = Sprague-Dawley, rat, male SD rats, oral FA extract 10.8 g/kg of the original medicinal material, statistical moment parameters, n = 6
[6] = male SD rats, oral FA extract 10.8 g/kg of the original medicinal material, two-compartment model parameters, n = 6
[7] = male, Sprague-Dawley, rat, plasma, po, 10.8 g/kg, male SD rats, oral FA extract 10.8 g/kg of the original medicinal material, statistical moment parameters, n = 6
[8] = male, Sprague-Dawley, rat, plasma, po, 10.8 g/kg, male SD rats, oral FA extract 10.8 g/kg of the original medicinal material, statistical moment parameters, n = 6, read-out: CLz/F (converted)
[9] = male, Sprague-Dawley, rat, plasma, po, 10.8 g/kg, male SD rats, oral FA extract 10.8 g/kg of the original medicinal material, statistical moment parameters, n = 6, read-out: Tmax
[10] = male, Sprague-Dawley, rat, plasma, po, 10.8 g/kg, male SD rats, oral FA extract 10.8 g/kg of the original medicinal material, statistical moment parameters, n = 6, read-out: t1/2z (converted)
[11] = male, Sprague-Dawley, rat, plasma, po, 10.8 g/kg, male SD rats, oral FA extract 10.8 g/kg of the original medicinal material, two-compartment model parameters, n = 6
[12] = male, Sprague-Dawley, rat, plasma, po, 10.8 g/kg, male SD rats, oral FA extract 10.8 g/kg of the original medicinal material, two-compartment model parameters, n = 6, read-out: CL/F (converted)
[13] = male, Sprague-Dawley, rat, plasma, po, 10.8 g/kg, male SD rats, oral FA extract 10.8 g/kg of the original medicinal material, two-compartment model parameters, n = 6, read-out: t1/2β (converted)
[14] = high QC concentration (3880 / 2946 / 2470 / 836 / 422.4 ng/mL)
[15] = low QC concentration (3.88 / 2.946 / 2.47 / 0.836 / 0.4224 ng/mL)
[16] = middle QC concentration (77.6 / 58.92 / 49.4 / 16.72 / 8.44 ng/mL)
[17] = male SD rats, oral FA extract 10.8 g/kg of the original medicinal material, statistical moment parameters, n = 6

Structure (SMILES) | MRT last [1, 4] | MRT inf [1, 4] | Vd/F [1, 4] | Cmax [1, 5] | Ka [1, 6] | V1/F [1, 6] | t1/2α [1, 6] | AUC(0-inf) [1, 7] | AUC(0-t) [1, 7] | CL/F [1, 8] | Tmax [1, 9] | half-life [1, 10] | AUC(0-inf) [1, 11] | AUC(0-t) [1, 11] | CL/F [1, 12] | half-life [1, 13] | Long-term Stability RE [2, 14] | Long-term Stability RE [2, 15] | Long-term Stability RE [2, 16] | Short-term Stability RE [2, 14] | other results
COc1ccc2ccc(=O)oc2c1CC(O)C(C)(C)O (centres unmarked) [Meranzin hydrate, meranzin hydrate] | 5.17 ± 0.34 h | 6.57 ± 0.95 h | 9.36 ± 3.56 L/kg | 3360 ± 91 ng/mL | 2.05 ± 0.46 h⁻¹ | 4.30 ± 1.14 L/kg | 6.61 ± 0.86 h | 11600 ± 2760 ng·h/mL | 11100 ± 2820 ng·h/mL | 16.2 mL/min/kg | ~1 h | > 6.5 h | 12300 ± 2590 ng·h/mL | 12100 ± 2760 ng·h/mL | 7.5 mL/min/kg | 6.91 ± 1.05 h | 6.85% | 7.62% | 3.19% | 7.43% | Short-term Stability RE [2, 15]: 4.71%; Short-term Stability RE [2, 16]: 1.55%; Free–thaw Stability RE [2, 14]: 7.63%; Free–thaw Stability RE [2, 15]: 5.77%; Free–thaw Stability RE [2, 16]: 0.71%
COc1ccc2ccc(=O)oc2c1CC1OC1(C)C (centres unmarked) [Meranzin, meranzin] | 4.82 ± 0.76 h | 6.39 ± 2.22 h | 477 ± 70.2 L/kg | 27.7 ± 2.85 ng/mL | 2.18 ± 0.97 h⁻¹ | 5.91 ± 1.12 L/kg | 6.39 ± 0.11 h | 80.4 ± 15.5 ng·h/mL | 76.9 ± 14.7 ng·h/mL | 2310 mL/min/kg | ~1 h | > 6.5 h | 87.8 ± 22.9 ng·h/mL | 84.4 ± 22.5 ng·h/mL | 1200 mL/min/kg | 6.48 ± 0.38 h | -7.37% | -10.98% | -13.52% | -2.81% | Tmax [1, 17]: 0.92 ± 0.13 h; t1/2z [1, 17]: 6.52 ± 0.63 h; Short-term Stability RE [2, 15]: -6.25%; Short-term Stability RE [2, 16]: -8.40%; Free–thaw Stability RE [2, 14]: -6.01%; Free–thaw Stability RE [2, 15]: -9.71%; Free–thaw Stability RE [2, 16]: 11.07%
COc1ccc(-c2cc(=O)c3c(OC)c(OC)c(OC)c(OC)c3o2)cc1OC [Nobiletin, nobiletin] | 4.23 ± 0.5 h | 4.8 ± 0.99 h | 151 ± 47 L/kg | 130 ± 4.78 ng/mL | 0.69 ± 0.25 h⁻¹ | 6.80 ± 1.24 L/kg | 4.40 ± 0.34 h | 480 ± 117 ng·h/mL | 473 ± 119 ng·h/mL | 393 mL/min/kg | 1.17 ± 0.26 h | 2.1 ± 0.37 h | 473 ± 63.1 ng·h/mL | 472 ± 62.6 ng·h/mL | 134 mL/min/kg | 4.49 ± 0.57 h | -3.36% | 5.83% | 6.71% | 0.80% | AUC(0-t) ([1]; Sprague-Dawley, rat, plasma, po, 10.8 g/kg, rats, oral FA extract, unit inferred): 473 ± 119 ng·h/mL; Short-term Stability RE [2, 15]: 7.01%; Short-term Stability RE [2, 16]: 7.89%; Free–thaw Stability RE [2, 14]: -1.72%; Free–thaw Stability RE [2, 15]: 2.21%; Free–thaw Stability RE [2, 16]: 10.46%

Second part, led by results:

MRT last [1, 4] | MRT inf [1, 4] | Vd/F [1, 4] | Cmax [1, 5] | Ka [1, 6] | V1/F [1, 6] | t1/2α [1, 6] | AUC(0-inf) [1, 7] | AUC(0-t) [1, 7] | CL/F [1, 8] | Tmax [1, 9] | half-life [1, 10] | AUC(0-inf) [1, 11] | AUC(0-t) [1, 11] | CL/F [1, 12] | half-life [1, 13] | Long-term Stability RE [2, 14] | Long-term Stability RE [2, 15] | Long-term Stability RE [2, 16] | Short-term Stability RE [2, 14] | Structure (SMILES) | other results
11.4 ± 0.37 h | 11.7 ± 0.42 h | 12.2 ± 1.67 L/kg | 425 ± 11.1 ng/mL | 3.17 ± 0.93 h⁻¹ | 7.17 ± 1.40 L/kg | 3.47 ± 0.51 h | 4340 ± 326 ng·h/mL | 4300 ± 315 ng·h/mL | 41.7 mL/min/kg | 9.67 ± 0.82 h | 3.4 ± 0.46 h | 4420 ± 724 ng·h/mL | 4350 ± 705 ng·h/mL | 68.2 mL/min/kg | 3.86 ± 0.32 h | -7.81% | 5.03% | -8.58% | -13.50% | COc1ccc([C@@H]2CC(=O)c3c(O)cc(O)cc3O2)cc1O [Hesperetin, hesperetin] | Shape of the plasma concentration-time profile ([1]; rats): double peaks; Short-term Stability RE [2, 15]: 4.10%; Short-term Stability RE [2, 16]: -9.20%; Free–thaw Stability RE [2, 14]: -12.68%; Free–thaw Stability RE [2, 15]: 7.78%; Free–thaw Stability RE [2, 16]: -10.70%
 |  |  |  |  | 0.82 ± 0.06 L/kg |  |  |  |  |  |  | 20900 ± 3010 ng·h/mL | 20700 ± 3010 ng·h/mL | 13.8 mL/min/kg | 2.65 ± 0.18 h |  |  |  |  | C[C@@H]1O[C@@H](O[C@H]2[C@H](Oc3cc(O)c4c(c3)O[C@H](c3ccc(O)cc3)CC4=O)O[C@H](CO)[C@@H](O)[C@@H]2O)[C@H](O)[C@H](O)[C@H]1O [NA, naringin] | Shape of the plasma concentration-time profile ([1]; rats): Double-peak phenomenon; Detection in rat plasma [3]: could not been detected
9.71 ± 0.56 h | 9.75 ± 0.56 h | 2.06 ± 0.29 L/kg | 2450 ± 226 ng/mL | 1.94 ± 0.37 h⁻¹ | 0.82 ± 0.06 L/kg | 2.63 ± 0.39 h | 19700 ± 2630 ng·h/mL | 19600 ± 2620 ng·h/mL | 9.33 mL/min/kg | 9.33 ± 1.03 h | 2.56 ± 0.17 h | 20900 ± 3010 ng·h/mL | 20700 ± 3010 ng·h/mL | 13.8 mL/min/kg | 2.65 ± 0.18 h | -9.76% | -0.84% | 12.09% | -13.49% | O=C1C[C@@H](c2ccc(O)cc2)Oc2cc(O)cc(O)c21 [Naringenin, naringenin] | Shape of the plasma concentration-time profile ([1]; rats): double peaks; Short-term Stability RE [2, 15]: -3.02%; Short-term Stability RE [2, 16]: 14.81%; Free–thaw Stability RE [2, 14]: -10.94%; Free–thaw Stability RE [2, 15]: -4.36%; Free–thaw Stability RE [2, 16]: 8.14%
